Test system: MCF-7 cells
Assay: MCF-7 Estrogen Dependent Proliferation Assay
Type: cell-based
Conditions: Homo sapiens, MCF7, estradiol added to Estrogen Depleted Media (EDM), read-out: EC50 of stimulation of growth of MCF-7 cells
Excerpt: MCF-7 Estrogen Dependent Proliferation Assay MCF-7 cells (ATCC #HTUB-22) are human mammary gland adenocarcinoma cells that require estrogen for growth. The growth media (GM) for the MCF-7 cells is Minimum Essential Media (without phenol red) supplemented with fetal bovine serum(FBS) to 10%. The FBS serves as the sole source of estrogen and this GM supports the full growth of the cells and is used for the routine growth of the cell cultures. When MCF-7 cells are placed in a media in which 10% Charcoal-Dextran treated fetal bovine serum (CD-FBS) is substituted for FBS, the cells will cease to divide but will remain viable. […] The addition of estradiol to EDM stimulates the growth of the MCF-7 cells in a dose dependent manner with an EC50 of […]. Growing MCF-7 cells are washed several times with EDM and the cultures then maintained in EDM for a minimum of 6 days in order to deplete the cells of endogenous estrogen. On day 0 (at the start of the assay), these estrogen depleted cells are plated into 96-well cell culture plates at a density of 1000 cells/well in EDM in a volume of 180 ul/well. […] At this point, the culture supernatants are aspirated, the cells washed 2× with PBS, the wash solution aspirated and the protein content of each well determined. Each drug dilution is evaluated on a minimum of 5 wells and the range of dilution of the test compounds in the assay is 0.001 nM to 1000 nM. […]

## C[C@]12CC[C@@H]3c4ccc(O)cc4CC[C@H]3[C@@H]1CC[C@@H]2O [estradiol]
  EC50: 2 pM
